For data set [1], the system named is Arabidopsis seedlings, rhizosphere. In words: Rhizosphere alkalinization, gel with pH indicator bromocresol purple. Type of data set: in vivo, Arabidopsis thaliana. Conditions: wild-type and bak1 seedlings, 10 μM, 30 min, pH 5.7. The protocol:
To analyze the rhizosphere alkalinization, seedlings were grown in plates for 7 days. To avoid damage to the roots, the medium was solidified with 12 g l^-1 Phytagel. Seedlings were transferred to plates containing the pH indicator bromocresol purple (pH 5.7) as described previously and treated with 10 μM AtRALF1 or water. Images were captured 30 min after transfer onto the gel indicator. The experiments were repeated at least three times using independent biological replicates. The data shown are from one representative experiment.

Data set [2] in a line: ITC of AtRALF1 into buffer. It counts as physicochemical. To be noted: AtRALF1 0.7 mM injected in 15 mM HEPES, pH 6.8, 25°C (S15A Fig). The protocol: ITC was performed using a VP ITC with a 1.4 ml standard cell and a 293 μl titration syringe. Proteins were dissolved in ITC buffer (15 mM HEPES (4-(2-hydroxyethyl)-1-piperazineethanesulfonic acid, pH 6.8) and the experiments were performed at 25°C. Molar protein concentration for BAK1-ECD and AtRALF1 were calculated using their molecular weight of 25,654.04 and 7,631 Da, respectively (determined by HPLC). The concentrations for the complex titrations were 0.7 mM of protein (BAK1-ECD) in the syringe and 0.03 mM of ligand (AtRALF1) in the cell at time intervals of 300 s (28 injections of volume 10 μl) to ensure that the titration peak returned to the baseline.
Supplementary file pgen.1007053.s015.pdf: S15 Fig Isothermal titration calorimetry (ITC) of AtRALF1 and BAK1-ECD. (A) AtRALF1 in 15mM HEPES, pH 6.8. ITC experiments were simulated using the following parameters: 28 injections of AtRALF1 (0.7 mM, volume 10 μL) in HEPES (volume cell = 1.4 mL) at 25°C. (B) BAK1-ECD in 15mM HEPES, pH 6.8. ITC experiments were simulated using the following parameters: 28 injections of BAK1-ECD (0.7 mM, volume 10 μL) in HEPES (volume cell = 1.4 mL) at 25°C. (C) HEPES in AtRALF1. ITC experiments were simulated using the following parameters: 28 injections of buffer 15mM HEPES, pH 6.8 (volume 10 μL) in AtRALF1 (0.03 mM, volume cell = 1.4 mL) at 25°C. (PDF) Click here for additional data file.

Data set [3] has as its system microsomal fractions from the roots of Arabidopsis. In words: Binding assay with acridinium-labeled AtRALF1, microsomal fractions. Also noted: species or system Arabidopsis thaliana. The protocol:
(A) Whole seedlings (5 days old) were treated for 15 min with acriAtRALF1 (acriR1), acriR1 and an excess of unlabeled AtRALF34 (R34), RALF1(9–49) [(R-9-49)], or AtRALF1 (R1), as indicated. The values are the mean ± SD of two measurements (5 seedlings each). (B) Microsomal fractions from wild-type and bak1 mutants were incubated for 15 min with acriAtRALF1 (acriR1), with acriR1 and an excess of unlabeled RALF1(9–49) [(R-9-49)], or with AtRALF1 (R1), as indicated. The values are the mean ± SD of two measurements. The proportions of labeled: unlabeled proteins are shown in parentheses. Single and triple asterisks indicate P < 0.1 and P < 0.01 (Student’s t test).
(§1) Arabidopsis seedlings were grown for 5 days on vertical plates. Roots were homogenized in extraction buffer [300 mM sucrose, 100 mM Tris-HCl pH 7.5, 25 mM EDTA, 25 mM NaF, 1 mM Na2MoO4, 1 mM PMSF and protease inhibitor cocktail (Roche), adjusted to pH 6.2], and the homogenate was spun at 2,000 x g for 10 min at 4 °C. The supernatant was recovered and centrifuged at 100,000 x g for 50 min at 4 °C to precipitate the microsomal pellet. The pellet was resuspended in the extraction buffer plus 0.5% Triton-X. Seedlings or microsomal fractions were placed in 200 μl of medium and incubated with 7 nM acridinium-labeled peptide (acriAtRALF1 or acriAtRALF34) and different concentrations of AtRALF1, AtRALF34 or RALF1(9–49) for 15–20 min at 4 °C on a shaker. After incubation, the seedlings or microsomal fractions were washed three times with the same medium. Unless indicated otherwise, five entire seedlings and approximately 10 ng of microsomal fractions were used per treatment. The resulting luminescence emissions from the acridinium were measured using a microplate reader (Biotec ELx 800) at 2 s after injecting 50 μl of a solution containing 20 mM H2O2 in 0.1 M NaOH. These experiments were repeated at least three times using independent biological replicates. Duplicates were used for each concentration or treatment. The data shown are from one representative experiment.

Data set [4] relates to intact Arabidopsis seedlings. In words: Binding assay with acridinium-labeled AtRALF34, intact seedlings. To be noted: 10-fold excess of unlabeled AtRALF1. Also noted: species or system Arabidopsis thaliana. The protocol:
as §1, with “experiment. […]” for “experiment.”

Where no end group is shown, it is not given here.

In the case of “AtRALF1: root-specific RALF isoform in Arabidopsis; recombinant peptide hormone produced in E. coli (ATTKYISYQSLKRNSVPCSRRGASYYNCQNGAQANPYSRGCSKIARCRS; ends and bridges not checked; cysteine pairing not given here)”, the “rhizosphere coloration (alkalinization)” value in data set [1] was “developed a purple coloration around the rhizosphere”. Further, the heat of dissociation result in data set [2] is “exhibits heat of dissociation”. For the same substance, in data set [3] (microsomal fractions from roots), the “share of AtRALF1 binding due to BAK1” value is on record as “approximately 15%”. In addition, in data set [3] (microsomal fractions of wild-type and bak1, 10-fold excess of AtRALF1), the “acriAtRALF1 binding reduced to, of the total” value is reported as “approximately 30%”. The “acriAtRALF1 binding reduced to, of the total binding” value in data set [3] (microsomal fractions of wild-type and bak1, 100- or 500-fold excess of AtRALF1) is recorded as “approximately 60%”. In addition, in data set [4], the “effect of unlabeled AtRALF1 on total acriAtRALF34 binding” value was “did not alter the total binding”.

The values above are taken from article PMC5656322, “BAK1 is involved in AtRALF1-induced inhibition of root cell expansion” (PLoS Genetics, 2017).
